What was measured:
Settings in all cases: 100 uM
[1] = tested on: SAS (head & neck cancer); assay: Cell uptake assay, SAS cells; assay type: cell-based, human
Method: (§1) • 1.1.1 15 mL of cell culture medium was placed into a T225 flask. • 1.1.2 The flask was placed in a humidified 37° C., 5% CO2 incubator for 15 minutes to allow medium to equilibrate to the proper pH and temperature. • 1.1.3 The vial was removed from liquid nitrogen and thawed rapidly by placing at 37° C. in a water bath with gentle agitation for 1-2 minutes and then decontaminated by wiping with 70% ethanol before opening in a Class II biological safety cabinet. • 1.1.4 The vial contents were transferred dropwise into 10 mL of cell culture medium in a sterile 15 mL conical tube. • 1.1.5 The cells were centrifuged at 1,300 rpm for 5 minutes. • 1.1.6 The supernatant was aspirated and re-suspended the cells and transferred the cells into T225 flask containing cell culture medium.
(§2) • 1.2.1 Culture medium were renewed every 2-3 days. • 1.2.2 Keep the flask in a humidified 37° C., 5% CO2 incubator
(§3) • Cells were harvested and diluted in culture medium to the designated concentration. Then the cells were cultured in T25 flasks, one T25 flask for one sample. 2.2 Formulation of test compounds • 2.2.1 L-Boronophenylalanine (L-BPA, 4-boron-L-phenylalanine, Purity: 95%, Chemical formula: C9H12BNO4, MW: 209.01, CAS: 76410-58-7) and fructose were dissolved in PBS at a molar ratio of 1:5, and then a 1.27 M ratio of 1 N NaOH is added. The mixture was stirred until L-BPA is completely dissolved, and the pH value was titrated to 7.2-7.4 with 1 N HC1. • 2.2.2 For test compounds other than BPA, stock solutions were prepared of each compound in DMSO or fructose formulation at a concentration of 20 mM (such that final % DMSO in the cellular assay medium=0.5%) 2.3 Compound treatment • 2.3.1 The cells were seeded overnight (12-18 hours) to allow the cells to adhere well. • 2.3.2 The stock solution of each compound was added to each T25 flask such that the final concentration for each compound is 100 uM (0.1 mM). • 2.3.3 The flasks were placed in a 37° C., 5% CO2 incubator for 1 hour, 4 hours and 24 hours. • 2.3.4 After treatment for 1 hour, 4 hour, and 24 hours, the cells were collected by using 0.25% Trypsin with 0.53 mM EDTA. • 2.3.5 Centrifuged at 1,300 rpm for 5 min to collect cell pellets.

[2] = tested on: B16F10; assay: Cell uptake assay, B16F10 cells; assay type: cell-based, mouse
Method: as §1, §2, §3

[3] = tested on: NIH-3T3; assay: Cell uptake assay, NIH-3T3 cells; assay type: cell-based, mouse
Method: as §1, §2, §3

[4] = tested on: U87-MG (glioblastoma); assay: Cell uptake assay, U87-MG cells; assay type: cell-based, human
Method: as §1, §2, §3

SMILES | Cell uptake, Mean, SAS ([1]; 1 hour) [ng/10^6 cell] | Cell uptake, Mean, SAS ([1]; 4 hours) [ng/10^6 cell] | Cell uptake, Mean, SAS ([1]; 24 hours) [ng/10^6 cell] | Cell uptake, Mean, B16F10 ([2]; 1 hour) [ng/10^6 cell] | Cell uptake, Mean, B16F10 ([2]; 4 hours) [ng/10^6 cell] | Cell uptake, Mean, NIH-3T3 ([3]; 1 hour) [ng/10^6 cell] | Cell uptake, Mean, NIH-3T3 ([3]; 4 hours) [ng/10^6 cell] | Cell uptake, Mean, U87-MG ([4]; 1 hour) [ng/10^6 cell] | Cell uptake, Mean, U87-MG ([4]; 4 hours) [ng/10^6 cell] | Cell uptake, Mean, U87-MG ([4]; 24 hours) [ng/10^6 cell] | Cell uptake, Mean, B16F10 ([2]; 24 hours) [ng/10^6 cell] | Cell uptake, Mean, NIH-3T3 ([3]; 24 hours) [ng/10^6 cell]
NC(Cc1ccc(CCB(O)O)cc1F)C(=O)O (single isomer, unassigned) [compound 8, (S*)-2-amino-3-(4-(2-boronoethyl)-2-fluorophenyl)propanoic acid] | 44.6 | 66.7 | 359 | 26.9 | 31.4 | 14.7 | 26.4 | 16.7 | 31.1 | 16.3 |  | 
NC(Cc1ccc(CCB(O)O)cc1F)C(=O)O (single isomer, unassigned) [compound 9, (R*)-2-amino-3-(4-(2-boronoethyl)-2-fluorophenyl)propanoic acid] | 129 | 103 | 211 |  | 66.7 | 34.4 | 43.0 | 90.1 |  | 74.6 | 119 | 37.2
N[C@@H](Cc1cccc(OCB(O)O)c1)C(=O)O [compound 1, (S)-2-amino-3-(3-(boronomethoxy)phenyl)propanoic acid] |  | 755 | 828 | 112 | 232 | 127 | 194 | 227 | 233 | 336 | 517 | 133
N[C@@H](Cc1ccc(OCB(O)O)cc1F)C(=O)O [compound 2, (S)-2-amino-3-(4-(boronomethoxy)-2-fluorophenyl)propanoic acid] | 1125 | 1590 | 1595 | 151 | 333 |  |  | 123 |  | 626 | 881 | 205
N[C@@H](Cc1ccc(OCCB(O)O)cc1)C(=O)O [compound 3, (2S)-2-amino-3-{4-[2-(dihydroxyboranyl)ethoxy]phenyl}propanoic acid] | 534 | 499 |  | 145 | 222 | 132 | 138 | 197 | 211 | 183 | 117 | 
NC(Cc1ccc(OCB(O)O)cc1)C(=O)O (stereo not shown) [compound 4, 2-amino-3-{4-[(dihydroxyboranyl)methoxy]phenyl}propanoic acid] | 445 | 495 | 997 | 46.1 | 95.6 | 27.1 | 58.6 | 42.8 | 113 | 191 | 101 | 66.6
N[C@@H](Cc1cccc(CCB(O)O)c1)C(=O)O [compound 5, (S)-2-amino-3-(3-(2-boronoethyl)phenyl)propanoic acid] |  | 225 | 214 |  | 157 | 171 | 77.2 |  |  |  | 262 | 
N[C@@H](Cc1ccc(OCCB(O)O)cc1F)C(=O)O [compound 6, (2S)-2-amino-3-{4-[2-(dihydroxyboranyl)ethoxy]-2-fluorophenyl}propanoic acid] | 152 | 106 | 46.0 |  | 92.3 | 53.4 | 23.2 | 160 | 137 |  |  | 
N[C@@H](Cc1ccc(OCB(O)O)c(F)c1)C(=O)O [compound 10, (2S)-2-amino-3-{4-[(dihydroxyboranyl)methoxy]-3-fluorophenyl}propanoic acid] | 1285 | 1850 |  |  | 442 | 81.9 | 204 | 295 | 673 | 681 | 814 | 
N[C@@H](Cc1ccc(F)c(OCB(O)O)c1)C(=O)O [compound 11, (2S)-2-amino-3-{3-[(dihydroxyboranyl)methoxy]-4-fluorophenyl}propanoic acid] | 529 | 454 | 999 | 50.6 | 121 | 32.4 | 92.8 | 113 | 322 | 309 | 202 | 122
N[C@@H](Cc1cc(F)cc(OCB(O)O)c1)C(=O)O [compound 13, (2S)-2-amino-3-[3-[(dihydroxyboranyl)methoxy]-5-fluorophenyl]propanoic acid] | 903 | 1012 | 1077 | 180 | 310 | 183 | 222 | 521 | 828 | 735 | 304 | 168
N[C@@H](Cc1cccc(C2(B(O)O)CC2)c1)C(=O)O [compound 14, (2S)-2-amino-3-{3-[1-(dihydroxyboranyl)cyclopropyl]phenyl}propanoic acid] |  |  |  |  |  |  | 444 |  |  |  |  | 
N[C@@H](Cc1ccc(C2(B(O)O)CC2)cc1)C(=O)O [compound 15, (2S)-2-amino-3-{4-[1-(dihydroxyboranyl)cyclopropyl]phenyl}propanoic acid] | 491 | 283 | 419 | 193 |  | 223 | 185 | 225 | 337 | 269 | 458 | 169

From patent publication US20240067665A1, “SMALL MOLECULES FOR BORON NEUTRON CAPTURE THERAPY” (Aviko Radiopharmaceuticals, LLC, priority 2022, published 2024)
